Reference: patent US7119105B2, “Methods for treating neurodegenerative disorders using aspartyl protease inhibitors” (The Regents of the University of California, priority 1997, dated 2006)
Like-named read-outs stand apart in the source and are kept apart here. Each block holds one compound with its values, some of them ahead of it.

How the values were obtained:
human liver cathepsin D = biological target: T1, human liver cathepsin D (Homo sapiens, UniProt P07339); assay: High-throughput fluorometric cathepsin D assay (library screen); format: biochemical; conditions: for inhibition at 0.1 µM: 100 nM inhibitor; for inhibition at 0.33 µM: read-out: Inhibition of Cathepsin D in Library Screen
T1 construct: human liver cathepsin D (Calbiochem); purchased Calbiochem; host or cells: human liver
T1 sequence (P07339 169-412 limits assumed): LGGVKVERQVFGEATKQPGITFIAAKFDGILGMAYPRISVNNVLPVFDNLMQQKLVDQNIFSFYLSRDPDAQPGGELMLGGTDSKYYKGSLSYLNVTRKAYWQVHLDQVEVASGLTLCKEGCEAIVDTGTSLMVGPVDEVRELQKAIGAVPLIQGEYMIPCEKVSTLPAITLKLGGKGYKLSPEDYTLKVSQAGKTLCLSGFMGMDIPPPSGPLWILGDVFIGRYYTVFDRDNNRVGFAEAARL
T1 sequence (P07339 65-162 limits assumed): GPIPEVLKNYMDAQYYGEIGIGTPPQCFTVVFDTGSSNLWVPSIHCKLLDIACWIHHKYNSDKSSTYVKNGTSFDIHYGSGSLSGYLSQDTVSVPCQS
Text: Compounds capable of inhibiting cathepsin D can readily be identified using the assays described herein which measure a change in the hydrolysis of a peptide substrate. More particularly, a fluorometric high through-put assay for activity toward human liver cathepsin D (Calbiochem) can be used to screen the compounds of the present invention for their ability to inhibit cathepsin D. This assay was previously described by G. A. Kraft, et al., Methods Enzymol. 241, 70-86 (1994), the teachings of which are incorporated herein by reference. […] T. Baldwin, et al., Proc. Natl. Acad. Sci., U.S.A. 90, 6796-6800 (1993)). Generally, the reactants are mixed, the reaction is allowed to proceed for a specific period of time and the fluorescence of the reaction products is monitored to determine the extent to which the peptide substrate has been cleaved. […] 241, 70-86 (1994). As such, following the methods of the present invention, compounds can be readily synthesized and screened to identify compounds that inhibit cathepsin D. Briefly, a fluorometric high through-put assay for activity toward human liver cathepsin D (Calbiochem) was performed in 96-well microtiter plates (G. A. Krafft, et al., Methods Enymol. 241, 70-86 (1994)). […] T. Baldwin, et al., Proc. Natl. Acad. Sci., U.S.A. 90, 6796-6800 (1993)). The assay was performed in […] Microfluor fluorescence microtiter plates, and readings were taken on a Perkin-Elmer LS-50B with an attached 96-well plate reader. The excitation wavelength was 340 nm. A 340 nm interference filter (Hoya, U-340) for excitation and a 430 nm cut-off filter for emission were used. […] The fluorescent unit readings were taken at three time points within the linear region of the substrate cleavage, and percent activity of the enzyme was determined by comparing the change of fluorescent units (FU) for each well to the average change in FU for six control wells without inhibitor.

cathepsin D = cathepsin D (Homo sapiens, UniProt P07339); assay: Cathepsin D cuvette assay for IC50 and inhibition constants (Ki); format: biochemical
Sequence of cathepsin D (P07339 65-412): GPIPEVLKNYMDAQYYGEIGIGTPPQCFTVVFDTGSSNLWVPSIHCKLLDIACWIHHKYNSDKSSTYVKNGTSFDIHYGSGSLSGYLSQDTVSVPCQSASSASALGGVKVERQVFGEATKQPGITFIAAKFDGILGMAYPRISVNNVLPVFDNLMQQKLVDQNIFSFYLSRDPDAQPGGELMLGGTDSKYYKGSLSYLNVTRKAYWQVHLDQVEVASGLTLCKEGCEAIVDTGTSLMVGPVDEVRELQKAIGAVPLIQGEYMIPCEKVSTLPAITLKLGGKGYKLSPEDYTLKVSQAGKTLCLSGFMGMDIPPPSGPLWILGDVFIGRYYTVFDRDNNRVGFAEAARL
Text: Compounds capable of inhibiting cathepsin D can readily be identified using the assays described herein which measure a change in the hydrolysis of a peptide substrate. More particularly, a fluorometric high through-put assay for activity toward human liver cathepsin D (Calbiochem) can be used to screen the compounds of the present invention for their ability to inhibit cathepsin D. This assay was previously described by G. A. Kraft, et al., Methods Enzymol. 241, 70-86 (1994), the teachings of which are incorporated herein by reference. […] T. Baldwin, et al., Proc. Natl. Acad. […] Generally, the reactants are mixed, the reaction is allowed to proceed for a specific period of time and the fluorescence of the reaction products is monitored to determine the extent to which the peptide substrate has been cleaved. […] 241, 70-86 (1994). As such, following the methods of the present invention, compounds can be readily synthesized and screened to identify compounds that inhibit cathepsin D. [table]

[1] = crude compound, approximate concentration
[2] = 330 nM inhibitor, crude compound, approximate concentration
[3] = Table IV, substrate 2.5 μM, cathepsin D 10 nM, Ki ≈ IC50 − Et/2
[4] = Table V second generation, conditions as Table IV
[5] = Table V second generation, conditions as Table IV, Ki ≈ IC50 − Et/2
[6] = Table VI, P1-varied 204 compound library, purified

- inhibition at 0.1 µM (human liver cathepsin D; [1]): ≥ 50%
- inhibition at 0.33 µM (human liver cathepsin D; [2]): ≥ 50%
SMILES: O=C(CCn1c(=O)oc2ccccc21)N[C@@H](Cc1ccccc1)[C@@H](O)CN(CCc1ccc2c(c1)OCO2)C(=O)COc1c(Cl)cc(Cl)cc1Cl [EAA]

- inhibition at 0.33 µM (human liver cathepsin D; [2]): ≥ 50%
SMILES: COc1ccc(C(=O)N[C@@H](Cc2ccccc2)[C@@H](O)CN(CCc2ccc3c(c2)OCO3)C(=O)COc2c(Cl)cc(Cl)cc2Cl)c(Cl)c1OC [EAJ]

- inhibition at 0.33 µM (human liver cathepsin D; [2]): ≥ 50%
SMILES: O=C(N[C@@H](Cc1ccccc1)[C@@H](O)CN(CCc1ccc2c(c1)OCO2)C(=O)/C=C/c1cc2c(cc1Br)OCO2)c1ccc([N+](=O)[O-])cc1Cl [EEF]

- inhibition at 0.1 µM (human liver cathepsin D; [1]): ≥ 50%
- inhibition at 0.33 µM (human liver cathepsin D; [2]): ≥ 50%
- Ki (cathepsin D; [3]): 171 ± 25 nM
SMILES: O=C(CCn1c(=O)oc2ccccc21)N[C@@H](Cc1ccccc1)[C@@H](O)CN(CCc1ccc2c(c1)OCO2)C(=O)CCc1ccc(Cl)c(Cl)c1 [EFA]

- inhibition at 0.33 µM (human liver cathepsin D; [2]): ≥ 50%
SMILES: O=C(COc1cc(Cl)c(Cl)cc1Cl)N[C@@H](Cc1ccccc1)[C@@H](O)CN(CCc1ccc2c(c1)OCO2)C(=O)CCc1ccc(Cl)c(Cl)c1 [EFD]

- inhibition at 0.33 µM (human liver cathepsin D; [2]): ≥ 50%
SMILES: O=C(CCN1C(=O)c2ccccc2C1=O)N[C@@H](Cc1ccccc1)[C@@H](O)CN(CCc1ccc2c(c1)OCO2)C(=O)CCc1ccc(Cl)c(Cl)c1 [EFH]

- inhibition at 0.33 µM (human liver cathepsin D; [2]): ≥ 50%
SMILES: O=C(CCc1ccc2c(c1)OCO2)N[C@@H](Cc1ccccc1)[C@@H](O)CN(CCc1ccc2c(c1)OCO2)C(=O)CCc1ccc(Cl)c(Cl)c1 [EFI]

- inhibition at 0.33 µM (human liver cathepsin D; [2]): ≥ 50%
SMILES: COc1ccc(C(=O)N[C@@H](Cc2ccccc2)[C@@H](O)CN(CCc2ccc3c(c2)OCO3)C(=O)CCc2ccc(Cl)c(Cl)c2)c(Cl)c1OC [EFJ]

- inhibition at 0.33 µM (human liver cathepsin D; [2]): ≥ 50%
SMILES: COc1ccc(C(=O)N[C@@H](Cc2ccccc2)[C@@H](O)CN(CCc2ccc3c(c2)OCO3)C(=O)/C=C/c2c(Cl)cccc2Cl)c(Cl)c1OC [EGJ]

- inhibition at 0.1 µM (human liver cathepsin D; [1]): ≥ 50%
- inhibition at 0.33 µM (human liver cathepsin D; [2]): ≥ 50%
- Ki (cathepsin D; [3]): 131 ± 12 nM
SMILES: O=C(CCn1c(=O)oc2ccccc21)N[C@@H](Cc1ccccc1)[C@@H](O)CN(CCc1ccc2c(c1)OCO2)C(=O)CCN1C(=O)c2ccccc2C1=O [EHA]

- inhibition at 0.33 µM (human liver cathepsin D; [2]): ≥ 50%
SMILES: O=C(/C=C/c1c(Cl)cccc1Cl)N[C@@H](Cc1ccccc1)[C@@H](O)CN(CCc1ccc2c(c1)OCO2)C(=O)CCN1C(=O)c2ccccc2C1=O [EHB]

- inhibition at 0.1 µM (human liver cathepsin D; [1]): ≥ 50%
- inhibition at 0.33 µM (human liver cathepsin D; [2]): ≥ 50%
- Ki (cathepsin D; [3]): 73 ± 9 nM
SMILES: O=C(COc1cc(Cl)c(Cl)cc1Cl)N[C@@H](Cc1ccccc1)[C@@H](O)CN(CCc1ccc2c(c1)OCO2)C(=O)CCN1C(=O)c2ccccc2C1=O [EHD]

SMILES: O=C(N[C@@H](Cc1ccccc1)[C@@H](O)CN(CCc1ccc2c(c1)OCO2)C(=O)CCN1C(=O)c2ccccc2C1=O)c1ccc([N+](=O)[O-])cc1Cl [EHF]
- inhibition at 0.33 µM (human liver cathepsin D): ≥ 50%

- inhibition at 0.33 µM (human liver cathepsin D; [2]): ≥ 50%
SMILES: O=C(CCN1C(=O)c2ccccc2C1=O)N[C@@H](Cc1ccccc1)[C@@H](O)CN(CCc1ccc2c(c1)OCO2)C(=O)CCN1C(=O)c2ccccc2C1=O [EHH]

- inhibition at 0.1 µM (human liver cathepsin D; [1]): ≥ 50%
- inhibition at 0.33 µM (human liver cathepsin D; [2]): ≥ 50%
SMILES: O=C(CCc1ccc2c(c1)OCO2)N[C@@H](Cc1ccccc1)[C@@H](O)CN(CCc1ccc2c(c1)OCO2)C(=O)CCN1C(=O)c2ccccc2C1=O [EHI]

- inhibition at 0.1 µM (human liver cathepsin D; [1]): ≥ 50%
- inhibition at 0.33 µM (human liver cathepsin D; [2]): ≥ 50%
- Ki (cathepsin D; [3]): 111 ± 8 nM
SMILES: COc1ccc(C(=O)N[C@@H](Cc2ccccc2)[C@@H](O)CN(CCc2ccc3c(c2)OCO3)C(=O)CCN2C(=O)c3ccccc3C2=O)c(Cl)c1OC [EHJ]

- IC50 (cathepsin D; [4]): 14 ± 2 nM
- Ki (cathepsin D; [5]): 9 nM
SMILES: O=C(COc1ccc(Cl)cc1Cl)N[C@@H](Cc1ccccc1)[C@@H](O)CN(CCc1ccc2c(c1)OCO2)C(=O)CCN1C(=O)c2ccccc2C1=O [EHM]

- IC50 (cathepsin D; [4]): 19 ± 2 nM
- Ki (cathepsin D; [5]): 15 nM
SMILES: O=C(COc1ccc(Cl)c(Cl)c1)N[C@@H](Cc1ccccc1)[C@@H](O)CN(CCc1ccc2c(c1)OCO2)C(=O)CCN1C(=O)c2ccccc2C1=O [EHO]

- IC50 (cathepsin D; [4]): 20 ± 2 nM
- Ki (cathepsin D; [5]): 15 nM
SMILES: O=C(COc1cccc(Cl)c1)N[C@@H](Cc1ccccc1)[C@@H](O)CN(CCc1ccc2c(c1)OCO2)C(=O)CCN1C(=O)c2ccccc2C1=O [EHR]

- IC50 (cathepsin D; [4]): 64 ± 6 nM
- Ki (cathepsin D; [5]): 59 nM
SMILES: COc1cc(Br)c(C(=O)N[C@@H](Cc2ccccc2)[C@@H](O)CN(CCc2ccc3c(c2)OCO3)C(=O)CCN2C(=O)c3ccccc3C2=O)cc1OC [EHS]

- inhibition at 0.33 µM (human liver cathepsin D; [2]): ≥ 50%
SMILES: O=C(CCn1c(=O)oc2ccccc21)N[C@@H](Cc1ccccc1)[C@@H](O)CN(CCc1ccc(Cl)cc1Cl)C(=O)COc1c(Cl)cc(Cl)cc1Cl [FAA]

- inhibition at 0.33 µM (human liver cathepsin D; [2]): ≥ 50%
SMILES: O=C(CCN1C(=O)c2ccccc2C1=O)N[C@@H](Cc1ccccc1)[C@@H](O)CN(CCc1ccc(Cl)cc1Cl)C(=O)COc1c(Cl)cc(Cl)cc1Cl [FAH]

- inhibition at 0.33 µM (human liver cathepsin D; [2]): ≥ 50%
SMILES: O=C(CCn1c(=O)oc2ccccc21)N[C@@H](Cc1ccccc1)[C@@H](O)CN(CCc1ccc(Cl)cc1Cl)C(=O)CCc1ccc(Cl)c(Cl)c1 [FFA]

- inhibition at 0.33 µM (human liver cathepsin D; [2]): ≥ 50%
SMILES: O=C(CCN1C(=O)c2ccccc2C1=O)N[C@@H](Cc1ccccc1)[C@@H](O)CN(CCc1ccc(Cl)cc1Cl)C(=O)CCc1ccc(Cl)c(Cl)c1 [FFH]

- inhibition at 0.1 µM (human liver cathepsin D; [1]): ≥ 50%
- inhibition at 0.33 µM (human liver cathepsin D; [2]): ≥ 50%
- Ki (cathepsin D; [3]): 231 ± 31 nM
SMILES: O=C(CCn1c(=O)oc2ccccc21)N[C@@H](Cc1ccccc1)[C@@H](O)CN(CCc1ccc(Cl)cc1Cl)C(=O)CCN1C(=O)c2ccccc2C1=O [FHA]

- inhibition at 0.33 µM (human liver cathepsin D; [2]): ≥ 50%
SMILES: O=C(N[C@@H](Cc1ccccc1)[C@@H](O)CN(CCc1ccc(Cl)cc1Cl)C(=O)CCN1C(=O)c2ccccc2C1=O)c1ccc([N+](=O)[O-])cc1Cl [FHF]

- inhibition at 0.33 µM (human liver cathepsin D; [2]): ≥ 50%
SMILES: COc1ccc(C(=O)N[C@@H](Cc2ccccc2)[C@@H](O)CN(CCc2ccc(Cl)cc2Cl)C(=O)CCN2C(=O)c3ccccc3C2=O)c(Cl)c1OC [FHJ]

- IC50 (cathepsin D; [4]): 18 ± 2 nM
- Ki (cathepsin D; [5]): 14 nM
SMILES: O=C(COc1ccc(Cl)c(Cl)c1)N[C@@H](Cc1ccccc1)[C@@H](O)CN(CCc1ccc(Cl)cc1Cl)C(=O)CCN1C(=O)c2ccccc2C1=O [FHO]

- Ki (cathepsin D; [6]): 2.6 ± 0.2 nM
SMILES: COc1cc(Br)c(C(=O)N[C@@H](Cc2ccc3ccccc3c2)[C@@H](O)CN(CCc2ccc(Cl)cc2Cl)C(=O)CCN2C(=O)c3ccccc3C2=O)cc1OC [Gbcf]

- Ki (cathepsin D; [6]): 1.9 ± 0.2 nM
SMILES: COc1cc(Br)c(C(=O)N[C@@H](Cc2cccc(Oc3ccccc3)c2)[C@@H](O)CN(CCc2ccc(Cl)cc2Cl)C(=O)CCN2C(=O)c3ccccc3C2=O)cc1OC [Kbcf]

- Ki (cathepsin D; [6]): 2.6 ± 0.2 nM
SMILES: COc1cc(Br)c(C(=O)N[C@@H](Cc2ccc(-c3ccccc3)cc2)C(O)CN(CCc2ccc(Cl)cc2Cl)C(=O)CCN2C(=O)c3ccccc3C2=O)cc1OC (stereo partly drawn) [Obcf]

- Ki (cathepsin D; [6]): 6.7 ± 0.7 nM
SMILES: COc1cc(Br)c(C(=O)N[C@@H](Cc2ccc(Br)cc2)[C@@H](O)CN(CCc2ccc(Cl)cc2Cl)C(=O)CCN2C(=O)c3ccccc3C2=O)cc1OC [Qbcf]

- IC50 (cathepsin D; [4]): 229 ± 44 nM
- Ki (cathepsin D; [5]): 224 nM
SMILES: Cc1ccc(CCN(C[C@H](O)[C@H](Cc2ccccc2)NC(=O)COc2cc(Cl)c(Cl)cc2Cl)C(=O)CCN2C(=O)c3ccccc3C2=O)cc1 [UHD]
